US20210255184A1, “Biosensor Device and Methods” (The New Zealand Institute for Plant and Food Research …, priority 2018, published 2021)

Target: T1, Or22a/Orco (Drosophila melanogaster, UniProt P81909)
T1 construct: his-tag; made in house; host or cells: baculovirus-infected Sf9 cells
T1 sequence (P81909 1-397): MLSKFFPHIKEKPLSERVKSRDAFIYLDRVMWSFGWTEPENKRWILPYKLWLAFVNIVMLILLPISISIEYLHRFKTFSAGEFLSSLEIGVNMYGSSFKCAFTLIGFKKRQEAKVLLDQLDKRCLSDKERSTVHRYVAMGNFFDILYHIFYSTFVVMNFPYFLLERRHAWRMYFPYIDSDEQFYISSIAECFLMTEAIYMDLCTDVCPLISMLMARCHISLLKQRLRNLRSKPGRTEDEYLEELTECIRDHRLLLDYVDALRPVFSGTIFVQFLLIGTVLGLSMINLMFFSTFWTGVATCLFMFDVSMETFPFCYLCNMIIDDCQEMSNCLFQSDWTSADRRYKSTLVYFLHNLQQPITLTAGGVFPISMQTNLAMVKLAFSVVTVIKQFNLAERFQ
T1 sequence (Q9VNB5 1-486 partner): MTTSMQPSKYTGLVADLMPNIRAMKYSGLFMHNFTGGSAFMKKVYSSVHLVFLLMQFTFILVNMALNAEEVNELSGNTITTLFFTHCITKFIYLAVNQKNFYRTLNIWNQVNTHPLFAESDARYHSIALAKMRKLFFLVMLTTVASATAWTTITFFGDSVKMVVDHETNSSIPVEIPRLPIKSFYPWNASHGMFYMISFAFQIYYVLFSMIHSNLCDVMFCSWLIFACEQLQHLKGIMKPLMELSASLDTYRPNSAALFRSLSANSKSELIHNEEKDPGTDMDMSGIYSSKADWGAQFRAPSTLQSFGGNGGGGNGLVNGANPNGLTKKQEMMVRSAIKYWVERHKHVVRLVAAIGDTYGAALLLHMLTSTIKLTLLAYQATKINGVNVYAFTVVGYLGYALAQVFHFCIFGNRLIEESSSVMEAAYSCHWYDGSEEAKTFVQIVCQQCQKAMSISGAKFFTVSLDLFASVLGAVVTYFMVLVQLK
Test: GFET sensor, Or22a/Orco liposomes
Assay type: biochemical
Details: Table 4, GFET
Text: The GFETs used in this study were fabricated from a predeposited graphene film on 300 nm SiO2 coated Si substrate from ACS Suppliers, USA. The FETs consist of a channel with dimensions of 100 μm width and […]. The key steps involved in fabricating the GFET on a Si/SiO2 substrate is schematically illustrated in FIG. 12. The source and drain electrodes were defined by photolithography and formed by successive deposition of Cr and Au. Both the drain and source electrodes were then encapsulated using AZ1518 photoresist and a channel with dimensions of 100 μm width and 10 μm length was left open to the environment for gating and functionalisation.
The OR liposomes were functionalised onto the graphene surface via a non-covalent route using PBASE as the molecular linker as shown in FIG. 13. The OR liposomes were diluted at 1:10 ratio with 1×PBS (pH7.4). The cleaned GFETs were immersed in 1 mM PBASE solution in methanol for 1 hour. […]
Electrical sensor measurements of OR liposome functionalised GFETs were carried out using top liquid gate morphology as shown in the schematic in FIG. 15 (a). […] The transfer characteristics of the different graphene FETs (FIG. 15 (b) to (g)) were measured at Vds=1 mV while the liquid gate voltage Vlg was swept from −0.5 V to 1 V with an interval of 20 mV. […]

Compound: CCCCCC(=O)OC [methyl hexanoate]
- Detection Range: 10^−13-10^−8 M
- EC50: 3.91 pM
